Test results as given in article PMC3705312, “Extracts, Anthocyanins and Procyanidins from Aronia melanocarpa as Radical Scavengers and Enzyme Inhibitors” (Nutrients, 2013).
Where two headings read alike, the source gives them in different places.

Tests used:
[1] = biological target: T1, α-glucosidase from baker's yeast (Saccharomyces cerevisiae, UniProt P53341); assay: biochemical; conditions: 15 min, pH 7.0, average ± SD, triplicate
T1 construct: purchased Sigma-Aldrich
Procedure: (§1) Procyanidin B2 and B5 reference compounds were obtained from Plant Polyphenols LLC (Boyce, LA, USA). All other reagents were of the highest purity available.
The α-glucosidase inhibitory activity was determined by a slight modification of the procedure reported by Matsui et al.. The enzyme solution was set at 800 mU/mL of α-glucosidase in a 50 mM phosphate buffer (pH = 7.0) containing 100 mM sodium chloride. For each assay, 20 µL of the test solution in DMSO or MeOH and 80 µL of the enzyme solution were preincubated at 37 °C for 5 min. The reaction was started by adding 1.9 mL of substrate solution (0.7 mM PNP-G in the buffer), and the solution was then incubated at 37 °C for 15 min. After the reaction had been stopped by adding 2.0 mL of a 0.5 M Tris solution, the absorbance of PNP released from PNP-G at 400 nm was measured. Percent enzyme inhibition was calculated as 100 × (AB − AS)/(AB), where AB and AS represent the absorbance of the blank and sample, respectively.

[2] = Scavenging of the diphenylpicrylhydrazyl (DPPH) radical; conditions: average ± SD; for DPPH % scavenging at 10.4 µg/mL: sample concentration 10.4 µg/mL, 5 min, values marked ^; for DPPH IC50 (concentration to give 50% scavenging): 5 min reaction, A517, values marked #, triplicate
Procedure: Scavenging activity towards the DPPH radical was carried out as previously described [18]. Briefly, to 2.95 mL of a methanolic solution of DPPH (A517 1.0), 50 µL of the test compound (dissolved in DMSO or MeOH) was added. The mixture was stirred, and the decrease in UV absorbance at 517 nm was measured over a period of 5 min. Percent radical scavenging was calculated as 100 × (Astart − Aend)/(Astart), where Astart is the absorbance before addition of the test compound and Aend is the absorbance value after 5 min of reaction time. Values were corrected for absorbance of the test substances.

15-LO from soybeans = biological target: T2, 15-LO from soybeans (Glycine max, UniProt P08170); assay: Inhibition of 15-lipoxygenase (15-LO); format: biochemical, soybean; conditions: borate buffer pH 9.00, average ± SD, triplicate
T2 construct: purchased Sigma-Aldrich
T2 sequence (P08170 1-839): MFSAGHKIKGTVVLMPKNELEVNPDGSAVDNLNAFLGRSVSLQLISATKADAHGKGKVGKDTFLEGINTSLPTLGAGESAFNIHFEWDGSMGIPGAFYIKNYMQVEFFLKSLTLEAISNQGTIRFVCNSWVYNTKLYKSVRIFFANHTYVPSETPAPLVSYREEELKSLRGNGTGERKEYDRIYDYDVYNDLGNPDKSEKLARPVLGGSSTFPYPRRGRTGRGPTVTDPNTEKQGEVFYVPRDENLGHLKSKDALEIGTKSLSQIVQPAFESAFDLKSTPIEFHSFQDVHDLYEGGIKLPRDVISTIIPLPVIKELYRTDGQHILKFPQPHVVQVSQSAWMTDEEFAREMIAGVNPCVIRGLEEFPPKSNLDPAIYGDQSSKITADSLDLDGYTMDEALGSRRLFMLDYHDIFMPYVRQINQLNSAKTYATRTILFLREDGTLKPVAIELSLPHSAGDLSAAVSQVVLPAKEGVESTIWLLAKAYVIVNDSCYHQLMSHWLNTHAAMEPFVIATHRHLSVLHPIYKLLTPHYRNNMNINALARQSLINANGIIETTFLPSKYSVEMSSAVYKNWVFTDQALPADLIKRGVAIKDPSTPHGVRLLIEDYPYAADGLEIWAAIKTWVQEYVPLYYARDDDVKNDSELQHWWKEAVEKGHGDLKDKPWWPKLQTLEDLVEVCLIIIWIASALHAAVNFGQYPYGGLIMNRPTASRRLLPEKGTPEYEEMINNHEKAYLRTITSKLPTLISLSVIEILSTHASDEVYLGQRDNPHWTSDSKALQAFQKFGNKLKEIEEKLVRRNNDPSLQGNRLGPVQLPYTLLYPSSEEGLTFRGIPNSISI

XO from bovine milk = biological target: T3, XO from bovine milk (Bos taurus, UniProt P80457); assay: Inhibition of xanthine oxidase (XO), hypoxanthine as substrate; format: biochemical; conditions: average ± SD
T3 construct: purchased Sigma-Aldrich; host or cells: bovine milk
Procedure: as §1
The XO inhibitory activity with hypoxanthine as the substrate was measured spectrophotometrically based on the procedure of Noro et al., with some modifications. The assay mixture consisting of 50 µL of test compound (dissolved in DMSO or MeOH) or (for blanks) DMSO or MeOH alone, 1.85 mL of 50 mM sodium-potassium phosphate buffer (pH = 7.5) and 100 µL of enzyme solution (1.8 U/mL in 50 mM sodium-potassium phosphate buffer, pH = 7.5) was prepared immediately before use. Substrate solution (1.0 mL, 20 µg/mL hypoxanthine in distilled water) was added. The mixture was stirred, and the increase in absorbance at 290 nm was measured over a period of 5 min. Percent enzyme inhibition was calculated as 100 × [(∆A1 − ∆A2)/∆A1], where ∆A1 and ∆A2 are values for the increase in A290 for the sample without test substance and with test substance, respectively.

[3] = 37 °C, read-out: α-Glucosidase IC50 (converted)
[4] = linoleic acid 134 µM, read-out: 15-Lipoxygenase IC50 (converted)
[5] = read-out: Xanthine oxidase % inhibition at a concentration of 42 µg/mL, 42 µg/mL

T1 sequence (P53341 whole entry): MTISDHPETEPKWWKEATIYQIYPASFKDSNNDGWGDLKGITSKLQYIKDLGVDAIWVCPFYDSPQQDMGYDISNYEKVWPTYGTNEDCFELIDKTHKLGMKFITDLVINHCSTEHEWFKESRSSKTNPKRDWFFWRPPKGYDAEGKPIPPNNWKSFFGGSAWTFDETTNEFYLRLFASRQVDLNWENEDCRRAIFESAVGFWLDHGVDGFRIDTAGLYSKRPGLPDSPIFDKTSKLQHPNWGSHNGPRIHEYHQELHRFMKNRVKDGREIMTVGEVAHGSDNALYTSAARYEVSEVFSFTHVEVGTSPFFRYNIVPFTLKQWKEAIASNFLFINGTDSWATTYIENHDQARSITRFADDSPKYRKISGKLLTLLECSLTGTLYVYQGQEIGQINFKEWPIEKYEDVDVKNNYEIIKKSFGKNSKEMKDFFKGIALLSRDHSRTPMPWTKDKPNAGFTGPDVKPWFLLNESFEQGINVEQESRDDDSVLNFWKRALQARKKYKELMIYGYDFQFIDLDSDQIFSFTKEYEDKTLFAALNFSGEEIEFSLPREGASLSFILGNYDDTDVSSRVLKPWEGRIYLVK
T3 sequence (P80457 whole entry): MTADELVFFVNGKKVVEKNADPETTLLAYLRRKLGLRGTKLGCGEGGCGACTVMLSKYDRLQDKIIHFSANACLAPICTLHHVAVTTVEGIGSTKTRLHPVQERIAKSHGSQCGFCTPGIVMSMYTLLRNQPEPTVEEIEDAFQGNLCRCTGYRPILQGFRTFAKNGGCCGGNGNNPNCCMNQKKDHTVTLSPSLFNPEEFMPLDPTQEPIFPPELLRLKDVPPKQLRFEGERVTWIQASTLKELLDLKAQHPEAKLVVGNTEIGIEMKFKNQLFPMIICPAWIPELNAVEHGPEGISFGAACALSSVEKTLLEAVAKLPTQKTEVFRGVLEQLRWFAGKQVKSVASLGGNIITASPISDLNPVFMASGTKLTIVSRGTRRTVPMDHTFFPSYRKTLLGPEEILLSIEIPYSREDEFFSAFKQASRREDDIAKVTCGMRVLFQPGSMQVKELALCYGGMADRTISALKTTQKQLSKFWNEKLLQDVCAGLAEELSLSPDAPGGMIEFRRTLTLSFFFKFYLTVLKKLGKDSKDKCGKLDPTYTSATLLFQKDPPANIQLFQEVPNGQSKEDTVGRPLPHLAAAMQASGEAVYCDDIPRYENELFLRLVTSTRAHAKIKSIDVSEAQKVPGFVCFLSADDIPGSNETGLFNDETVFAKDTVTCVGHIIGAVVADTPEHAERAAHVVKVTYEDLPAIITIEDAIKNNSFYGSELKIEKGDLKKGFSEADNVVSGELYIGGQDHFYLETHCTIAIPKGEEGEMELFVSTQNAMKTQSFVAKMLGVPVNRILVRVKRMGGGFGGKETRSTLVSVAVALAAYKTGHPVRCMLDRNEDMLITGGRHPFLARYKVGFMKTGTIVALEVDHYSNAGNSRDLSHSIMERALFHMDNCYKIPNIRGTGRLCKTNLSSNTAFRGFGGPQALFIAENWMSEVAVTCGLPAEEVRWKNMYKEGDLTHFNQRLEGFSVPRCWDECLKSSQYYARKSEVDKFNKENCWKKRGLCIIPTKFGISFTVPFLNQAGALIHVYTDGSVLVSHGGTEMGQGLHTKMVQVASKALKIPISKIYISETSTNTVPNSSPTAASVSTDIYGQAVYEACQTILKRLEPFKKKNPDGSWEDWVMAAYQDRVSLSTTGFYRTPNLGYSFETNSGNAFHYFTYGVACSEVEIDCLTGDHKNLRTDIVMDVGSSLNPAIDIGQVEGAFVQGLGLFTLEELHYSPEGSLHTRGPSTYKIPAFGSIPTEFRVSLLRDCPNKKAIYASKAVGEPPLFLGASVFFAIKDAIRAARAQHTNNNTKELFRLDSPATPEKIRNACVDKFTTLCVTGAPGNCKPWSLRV

| Compound | IC50 [1, 3] [µM] | DPPH % scavenging at 10.4 µg/mL [2] | IC50 (15-LO from soybeans; [4]) [µM] | Xanthine oxidase % inhibition at a concentration of 17 µg/mL (XO from bovine milk) [%] | IC50 ([1]; α-Glucosidase IC50, 37 °C) [µM] | DPPH IC50 (concentration to give 50% scavenging) [2] | inhibition at 42 µg/mL (XO from bovine milk; [5]) [%] | inhibition at 17 µg/mL (XO from bovine milk; read-out: Xanthine oxidase % inhibition at a concentration of 17 µg/mL, 17 µg/mL) [%] | IC50 (15-LO from soybeans; 15-Lipoxygenase IC50, linoleic acid 134 µM) [µM] | inhibition at 42 µg/mL (XO from bovine milk; 42 µg/mL, read-out: Xanthine oxidase % inhibition at a concentration of 42 µg/mL) [%] |
| --- | --- | --- | --- | --- | --- | --- | --- | --- | --- | --- |
| OCC1OC(Oc2cc3c(O)cc(O)cc3[o+]c2-c2ccc(O)c(O)c2)C(O)C(O)C1O (centres unmarked) [Compound 2, cyanidin 3-glucoside] | 1.94 | 37.0 ± 0.9 ^^ % | 163 | 20.9 ± 3.4 |  |  |  |  |  |  |
| Oc1cc(O)c2c(c1)O[C@H](c1ccc(O)c(O)c1)[C@H](O)[C@H]2c1c(O)cc(O)c2c1O[C@H](c1ccc(O)c(O)c1)[C@H](O)[C@H]2c1c(O)cc(O)c2c1O[C@H](c1ccc(O)c(O)c1)[C@H](O)C2 [Compound 7, epi-(4β→8)-epi-(4β→8)-epi (C1)] |  |  | 66.5 |  | 4.38 | 3.2 ± 0.1 ^# µg/mL | 15.5 ± 1.5 |  |  |  |
| O=c1c(O)c(-c2ccc(O)c(O)c2)oc2cc(O)cc(O)c12 [Quercetin, quercetin, reference compound] |  |  |  |  |  | 3.0 ± 0.2 ^# µg/mL |  |  |  |  |
| OCC1OC(Oc2cc3c(O)cc(O)cc3[o+]c2-c2ccc(O)c(O)c2)C(O)C(O)C1O (centres unmarked) [Compound 1, cyanidin 3-galactoside] | 3.43 | 39.0 ± 2.9 ^^ % | 159 |  |  |  |  | 11.9 ± 4.4 |  |  |
| Oc1cc(O)c2c(c1)O[C@H](c1ccc(O)c(O)c1)[C@H](O)[C@H]2c1c(O)cc2c(c1O)C[C@@H](O)[C@@H](c1ccc(O)c(O)c1)O2 [Compound 6, epi-(4β→6)-epi (B5)] | 9.51 |  | 125 |  |  | 5.2 ± 0.1 ^# µg/mL | 6.6 ± 0.7 |  |  |  |
| Oc1cc(O)c2c(c1)O[C@H](c1ccc(O)c(O)c1)[C@H](O)[C@H]2c1c(O)cc(O)c2c1O[C@H](c1ccc(O)c(O)c1)[C@H](O)C2 [Compound 5, procyanidin B2] |  |  |  |  | 8.12 | 4.7 ± 0.3 ^# µg/mL |  |  | 113 | 12.7 ± 2.8 |
| Oc1cc(O)c2cc(OC3OCC(O)C(O)C3O)c(-c3ccc(O)c(O)c3)[o+]c2c1 (centres unmarked) [Compound 3, cyanidin 3-arabinoside] | 0.882 | 40.0 ± 0.4 ^^ % | 140 | 39.1 ± 2.1 |  |  |  |  |  |  |
| Oc1cc(O)c2cc(OC3OCC(O)C(O)C3O)c(-c3ccc(O)c(O)c3)[o+]c2c1 (centres unmarked) [Compound 4, cyanidin 3-xyloside] | 13.1 | 25.0 ± 5.0 ^^ % | > 198 | 11.4 ± 2.8 |  |  |  |  |  |  |
